Reference: patent publication US10640492B2, “Tubulin inhibitor” (SHENZHEN NEPTUNUS PHARMACEUTICAL RESEARCH INSTITUTE CO., …, priority 2016, dated 2020)

What was measured:
[1] = system: drug-resistant MES-SA cells (p-glycoprotein induced); assay: Inhibitory effect on tumor proliferation, drug-resistant MES-SA transplanted tumor; assay type: in vivo; details: drug-resistant MES-SA nude mice, dose that does not reduce body weight, vs blank vehicle (FIG. 1)
Method: MES-SA cells (derived from ATCC) were cultured in low concentration of adriamycin for a long time to maintain sufficient cell viability and induced the expression of p-glycoprotein. After culturing for 10 months, the results of induced expression were detected by WB. After successful induction, the cells were cultured for one week in adriamycin-free medium. The tumor cells with adjusted concentration were inoculated into the armpit of nude mice. The transplanted tumors were treated with different drugs when they grew to a certain volume. Different doses of different drugs were administrated to blank mice to explore the drug dose not affecting the body weight of the animals, namely the dose to be administrated to treat the animals with transplanted tumors.

[2] = system: blood flow distribution in tissues and tumor tissue; assay: Blood flow distribution of tissues and tumor; assay type: in vivo, nude mice; details: two hours after administration, same pharmacodynamic dose, vs blank vehicle
Excerpt: In this example, the effects of drugs on blood flow distribution of different tissues and organs at the same pharmacodynamic dose were simultaneously tested.

[3] = system: HT-1080 human fibrosarcoma cell strain
Method: (§1) To test the cytotoxic IC50 values of 14 candidate compounds against 5 cell strains (MDA-MB-231, HT-1080, AGS, A-673 & HUVEC) using a CCK-8 test kit.
(§2) a) The compound was serially diluted with DMSO starting from 0.5 μM, using twice echelon dilution.
(§3) The logarithmic growth phase cells were collected and counted. The cells were re-suspended in complete medium, whose concentration was adjusted according to the test results of the cell density optimization, and then seeded into 96-well plates with 100 μl of the cell suspension to each well. The cells were incubated in a 37° C., 100% relative humidity, 5% CO2 incubator for 24 hours.
(§4) b) The test compound was diluted with the medium to the corresponding action concentrations set up, and added into the cells in the plates at 25 μl/well. The test compound was prepared in 9 final action concentrations, which were obtained by sequentially diluted from 500 nM using twice echelon dilution.
(§5) c) The cells were incubated in a 37° C., 100% relative humidity, 5% CO2 incubator for 72 hours.
(§6) d) The medium was removed from the cells, and a complete medium containing 10% CCK-8 was added and incubated in a 37° C. incubator for 1-4 hours.
(§7) e) After gentle shaking, the absorbance at 450 nm of the sample was measured on a SpectraMax M5 Microplate Reader, and the inhibition ratio was calculated using the absorbance at 650 nm as reference.
(§8) The inhibition ratio of the drug on tumor cell growth was calculated as follows: tumor cell growth inhibition %=[(Ac−As)/(Ac−Ab)]×100%
(§9) The IC50 curve was fitted and the IC50 value was calculated using the software Graphpad Prism 5 and using the calculation formula log(inhibitor) vs. normalized response-variable slope or log(inhibitor) vs. response-variable slope.

[4] = system: AGS human gastric adenocarcinoma cell strain
Method: AGS human gastric adenocarcinoma cell strain (purchased from Shanghai Cell Resource Center, Chinese Academy of Sciences)
as §2, §3, §4, §5, §6, §7, §8, §9

[5] = system: A-673 human rhabdomyosarcoma cell strain
Method: as §1, §2, §3, §4, §5, §6, §7, §8, §9

[6] = system: HUVEC human umbilical vein endothelial cell strain
Method: HUVEC human umbilical vein endothelial cell strain (purchased from ScienCell Research Laboratories, Cat #8000, Lot #11233)
as §2, §3, §4, §5, §6, §7, §8, §9

[7] = system: MDA-MB-231 human breast cancer cell strain
Method: as §1
MDA-MB-231 human breast cancer cell strain (purchased from Shanghai Cell Resource Center, Chinese Academy of Sciences)
as §2, §3, §4, §5, §6, §7, §8, §9

neutrophil count = details: rat, in vivo
Excerpt: Multiple doses of different drugs were administrated to the nude mice respectively and the potency of the drugs in inhibiting the transplanted tumor in the nude mice was investigated. Base on the investigation, the equivalent dose of each drug was identified and converted to rat dose before administrated to the rats. That is, by administrating the rats with relatively equivalent pharmacodynamic dose, the effect of the drugs on the neutrophil count was examined. After continuously administration for two weeks, blood samples were collected and neutrophil counts were measured (FIG. 3).

[8] = Stability investigation (10-day accelerated stress testing)
Method: The tested conditions included 40° C., 60° C., humidity 75%, humidity 92.5%, and light. And under each condition, moisture, purity, maximum single impurity and total impurity of the compound tested were compared to that of day 0.

IC50 [3]: > 0.6 µM
IC50 [4]: > 0.6 µM
IC50 [5]: > 0.6 µM
IC50 [6]: > 0.6 µM
IC50 [7]: > 0.6 µM
Content ([8]; 40° C., day 5): 97.86%
Maximum single impurity ([8]; 40° C., day 5): 0.73 RRT: 0.58) %
Content ([8]; 40° C., day 10): 98.36%
Maximum single impurity ([8]; 40° C., day 10): 1.22 (RRT: 0.58) %
Content ([8]; 60° C., day 5): 95.77%
Maximum single impurity ([8]; 60° C., day 5): 2.84 (RRT: 0.24) %
Content ([8]; 60° C., day 10): 93.45%
Maximum single impurity ([8]; 60° C., day 10): 3.97 (RRT: 0.24) %
Content ([8]; Day 0): 99.37%
Maximum single impurity ([8]; Day 0): 0.39 (RRT: 0.58) %
SMILES: C=CC(C)(C)c1[nH]cnc1/C=C1\NC(=O)[C@H](Cc2ccccc2)NC1=O [(−)phenylahistin, reference compound]
anti-tumor proliferation effect (tumor weight) [1]: almost had no effect against tumor proliferation
distribution of blood flow in tissues except tumor tissues [2]: did not significantly affect the distribution of blood flow in tissues except tumor tissues
intratumoral blood flow distribution [2]: can significantly reduce the intratumoral blood flow distribution
neutrophil count (neutrophil count): significantly lower than blank vehicle group
